# Data as given in the supplement of paper PMC10331698.
# ± gives the standard deviation of the averaged measurements.
# Legend:
# Assay in all cases: level (log10 ratio to DMSO vehicle control); higher = higher biomarker level / cell amount than vehicle control
# [1] = compound: C=C(C)C(=O)OCCC(F)(F)C(F)(F)C(F)(F)C(F)(F)C(F)(C(F)(F)F)C(F)(F)F [(Perfluoro-5-methylhexyl)ethyl 2-methylprop-2-enoate]; details: in DMSO
# Description: (§1)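 BioMAP Diversity Plus panel of 12 human primary cell co-culture systems (3C, 4H, LPS, SAg, BT, BF4T, BE3C, CASM3C, HDF3CGF, KF3CT, MyoF, Mphg). Compounds were added 1 h before stimulation and left for 24 h (MyoF 48 h; BT 72 h for soluble read-outs or 6 d for IgG). Biomarkers were read by ELISA, cytotoxicity by SRB, PBMC viability and proliferation by Alamar Blue. Each well value was divided by the mean of 8 DMSO control wells on the same plate and log10 transformed; duplicate blinded samples were tested at 4 concentrations.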
# [2] = compound: FC(F)(F)C(F)(C(F)(F)F)C(F)(F)C(F)(F)CC1CO1 [3-(Perfluoro-3-methylbutyl)-1,2-propenoxide]; details: in DMSO
# Description: as §1
# [3] = compound: FC(F)(F)C(F)(F)C(F)(F)C(F)(F)C(F)(F)CCI [1-Iodo-1H,1H,2H,2H-perfluoroheptane]; details: in DMSO
# Description: as §1
# Heptafluorobutyramide = compound: NC(=O)C(F)(F)C(F)(F)C(F)(F)F [Heptafluorobutyramide]; details: in DMSO
# Description: as §1
# Perfluoropentanoic acid = compound: O=C(O)C(F)(F)C(F)(F)C(F)(F)C(F)(F)F [Perfluoropentanoic acid]; details: in DMSO
# Description: as §1
# Perfluorobutanoic acid = compound: O=C(O)C(F)(F)C(F)(F)C(F)(F)F [Perfluorobutanoic acid]; details: in DMSO
# Description: as §1
# [4] = compound: O=C(O)C(F)(F)C(F)(F)OC(F)(F)F [Perfluoro-3-methoxypropanoic acid]; details: in DMSO
# Description: as §1
# [5] = compound: OCCCC(F)(F)C(F)(F)C(F)(F)C(F)(F)C(F)(F)C(F)(F)C(F)(F)F [7:3 Fluorotelomer alcohol]; details: 6700 nM; in DMSO
# Description: as §1
Test System,level (log10) ([1]; 6700 nM),level (log10) ([1]; 20000 nM),level (log10) ([2]; 6700 nM),level (log10) ([2]; 20000 nM),level (log10) ([3]; 6700 nM),level (log10) ([3]; 20000 nM),level (log10) ([3]; 60000 nM),level (log10) (Heptafluorobutyramide; 6700 nM),level (log10) (Heptafluorobutyramide; 20000 nM),level (log10) (Heptafluorobutyramide; 60000 nM),level (log10) (Perfluoropentanoic acid; 6700 nM),level (log10) (Perfluoropentanoic acid; 20000 nM),level (log10) (Perfluoropentanoic acid; 60000 nM),level (log10) (Perfluorobutanoic acid; 6700 nM),level (log10) (Perfluorobutanoic acid; 20000 nM),level (log10) (Perfluorobutanoic acid; 60000 nM),level (log10) ([4]; 6700 nM),level (log10) ([4]; 20000 nM),level (log10) ([4]; 60000 nM),level (log10) [5]
BE3C:CD87/uPAR,0.0035 ± 0.016,0.0165 ± 0.035,0.01 ± 0.011,-0.008 ± 0.0057,0.006 ± 0.02,0.002 ± 0.0057,0.027 ± 0.0042,0.043 ± 0.04,0.0155 ± 0.016,-0.019 ± 0.017,-0.0035 ± 0.063,-0.0235 ± 0.026,0.024 ± 0.0014,-0.012 ± 0.0099,0.0015 ± 0.013,-0.015 ± 0.013,-0.0225 ± 0.0092,-0.012 ± 0.013,0.002 ± 0.041,0.0185 ± 0.03
BF4T:MMP-9,-0.036 ± 0.05,-0.007 ± 0.038,0.0085 ± 0.005,-0.0125 ± 0.026,0.01 ± 0.0014,0.03 ± 0.0014,0.065 ± 0.017,0.014 ± 0.017,0.0035 ± 0.039,0.011 ± 0.04,-0.0115 ± 0.0064,-0.0115 ± 0.019,-0.0005 ± 0.035,0.006 ± 0.045,0.006 ± 0.059,0.022 ± 0.059,-0.002 ± 0.0028,-0.0125 ± 0.011,0.032 ± 0.013,-0.0235 ± 0.018
SAg:PBMC Cytotoxicity,-0.0255 ± 0.018,0.0155 ± 0.013,0.008 ± 0.0071,0.016 ± 0.023,-0.016 ± 0.024,0.0085 ± 0.018,-0.033 ± 0.045,0.001 ± 0.014,-0.0125 ± 0.021,0.019 ± 0.0099,-0.0105 ± 0.023,-0.0135 ± 0.012,0.0145 ± 0.022,-0.0155 ± 0.00071,-0.013 ± 0.037,-0.009 ± 0.057,0.034 ± 0.014,0.016 ± 0.013,-0.0115 ± 0.011,-0.0315 ± 0.018
LPS:CCL2/MCP-1,0.009 ± 0.021,0.0115 ± 0.028,-0.01 ± 0.0057,0.005 ± 0.024,-0.013 ± 0.013,-0.013 ± 0.021,-0.0045 ± 0.021,0.0255 ± 0.0035,0.0105 ± 0.0078,0.0275 ± 0.057,0.0065 ± 0.0064,-0.0065 ± 0.00071,0.0225 ± 0.039,-0.011 ± 0.011,-0.01 ± 0.011,0.0085 ± 0.025,-0.005 ± 0.0057,0.003 ± 0.0071,0.0055 ± 0.03,-0.026 ± 0.023
BF4T:Keratin 8/18,-0.024,-0.0115 ± 0.0078,0.01 ± 0.023,-0.002 ± 0.035,0.0135 ± 0.022,-0.0085 ± 0.005,-0.015 ± 0.0028,-0.0015 ± 0.03,0.0065 ± 0.026,0.0055 ± 0.057,0.0055 ± 0.0064,-0.002 ± 0.0085,0.0055 ± 0.03,-0.0015 ± 0.0092,-0.011 ± 0.011,0.0075 ± 0.018,-0.002 ± 0.031,-0.003 ± 0.0085,0.016 ± 0.011,0.0045 ± 0.0035
SAg:CD40,0 ± 0.0071,-0.0275 ± 0.028,-0.018 ± 0.025,-0.0205 ± 0.039,0.0015 ± 0.0078,-0.0095 ± 0.0021,-0.011 ± 0.011,-0.031 ± 0.042,-0.039 ± 0.042,-0.034 ± 0.068,0.0105 ± 0.005,0.0025 ± 0.0064,-0.001 ± 0.025,-0.0055 ± 0.026,-0.014 ± 0.02,-0.0015 ± 0.0092,0.013 ± 0.0071,0.01 ± 0.0042,-0.0055 ± 0.019,-0.031 ± 0.0057
BF4T:IL-1alpha,-0.0155 ± 0.021,-0.014 ± 0.03,-0.016 ± 0.024,0.0185 ± 0.013,0.0015 ± 0.022,-0.001 ± 0.011,0.0065 ± 0.0092,0.005 ± 0.02,-0.0045 ± 0.012,0.016 ± 0.0071,-0.016 ± 0.0085,-0.005 ± 0.0071,0.0155 ± 0.046,-0.0025 ± 0.029,0.0085 ± 0.0064,0.013 ± 0.014,-0.0055 ± 0.03,-0.021 ± 0.0042,0.004 ± 0.045,-0.0045 ± 0.012
SAg:CD62E/E-Selectin,0.0215 ± 0.011,0.007 ± 0.014,-0.0195 ± 0.019,-0.012,0.023 ± 0.062,-0.0295 ± 0.0078,0.017 ± 0.0085,0.0035 ± 0.023,-0.008 ± 0.047,-0.0065 ± 0.022,0.0005 ± 0.0064,-0.012 ± 0.013,0.0195 ± 0.025,-0.026 ± 0.0042,-0.024 ± 0.0057,-0.024 ± 0.013,0.004 ± 0.0099,-0.01 ± 0.018,-0.016 ± 0.018,-0.0005 ± 0.00071
4H:VEGFR2,-0.0185 ± 0.037,-0.0115 ± 0.033,-0.001 ± 0.014,0.0245 ± 0.026,0.002 ± 0.047,-0.004 ± 0.017,0.0155 ± 0.0021,0.018 ± 0.024,0.01,0.0075 ± 0.029,0.0065 ± 0.056,0.0025 ± 0.013,0.008 ± 0.025,-0.025 ± 0.021,-0.0105 ± 0.005,0.004 ± 0.013,-0.085 ± 0.041,-0.0895 ± 0.05,-0.009 ± 0.093,0.014 ± 0.017
BF4T:PAI-I,-0.01 ± 0.018,-0.023 ± 0.0057,-0.0045 ± 0.013,0.0005 ± 0.016,0.012 ± 0.014,0.005 ± 0.0014,0.0135 ± 0.016,-0.0025 ± 0.0021,-0.014 ± 0.016,0.005 ± 0.027,-0.003 ± 0.0014,-0.005 ± 0.0028,0.007 ± 0.011,-0.003 ± 0.0057,-0.0115 ± 0.0064,0.0025 ± 0.023,0.0015 ± 0.0064,0.0105 ± 0.0092,0.015 ± 0.017,-0.0105 ± 0.005
LPS:sTNF-alpha,0.0265 ± 0.04,0.0345 ± 0.063,0.0005 ± 0.0078,-0.0025 ± 0.005,0.003 ± 0.011,-0.0065 ± 0.04,-0.0135 ± 0.046,0.012 ± 0.017,0.013 ± 0.011,0.001 ± 0.023,0.003 ± 0.021,0.01 ± 0.0071,0.021 ± 0.014,-0.0195 ± 0.012,-0.0055 ± 0.0078,-0.041 ± 0.034,0.036 ± 0.011,0.036 ± 0.045,0.06 ± 0.059,-0.081 ± 0.05
SAg:CD69,-0.0095 ± 0.015,-0.0335 ± 0.033,-0.0125 ± 0.015,-0.006 ± 0.059,-0.025 ± 0.011,-0.037 ± 0.0042,-0.036 ± 0.011,0.031 ± 0.034,0.02 ± 0.016,0.0165 ± 0.05,0.002 ± 0.016,-0.0155 ± 0.028,-0.0165 ± 0.033,-0.01 ± 0.014,-0.0095 ± 0.03,0.018 ± 0.047,0.0005 ± 0.00071,0.0225 ± 0.011,-0.0005 ± 0.018,-0.026 ± 0.018
BF4T:CCL26/Eotaxin-3,-0.0125 ± 0.0064,0.016 ± 0.044,0.012 ± 0.028,-0.0095 ± 0.016,-0.0135 ± 0.012,-0.0315 ± 0.0092,-0.17 ± 0.021,0.0165 ± 0.022,-0.0035 ± 0.0021,0.0045 ± 0.012,-0.0155 ± 0.029,-0.0165 ± 0.0092,0.018 ± 0.05,-0.0225 ± 0.042,0.0075 ± 0.0021,0.008 ± 0.028,-0.033 ± 0.0085,-0.031 ± 0.016,0.02 ± 0.057,-0.088 ± 0.17
